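Assay format: 96-well plates, 48-hour exposure. Abbreviation: GI50, concentration required for 50% inhibition of growth.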 The source made the active and inactive calls. Cut-off read from the data, not from the text of the source: active = GI50 up to about 1.1 µM and inactive = higher.

Usually GI50 stands for the concentration giving 50% growth inhibition.

Test systems include TK-10; NCI-H460; MCF7; CCRF-CEM; HCT-116; UACC-62; HCT-15; SK-OV-3; A549; NCI/ADR-RES; COLO 205; PC-3; Malme-3M; NCI-H23; ACHN; KM12; NCI-H522; SK-MEL-5; SK-MEL-2; A498.
Holding throughout (test): DTP human tumour cell line panel, 48 h

As to `COc1ccc(C(O)(c2ccccc2)c2nccc3ccccc23)cc1` (stereo not drawn), the GI50 in the assay with TK-10 was 27.8 µM (inactive); in the assay on NCI-H460, 5.82 µM (inactive); with MCF7, 4.32 µM (inactive); in the assay on CCRF-CEM, 2.01 µM (inactive); in the assay on HCT-116, 4.76 µM (inactive); in the assay with UACC-62, 3.74 µM (inactive). For the same compound, the GI50 is 4.58 µM with HCT-15; 4.06 µM (inactive) in the assay on SK-OV-3; 7.19 µM (inactive) with A549; 7.05 µM (inactive) in the assay on NCI/ADR-RES; 4.47 µM (inactive) in the assay with COLO 205; 3.02 µM (inactive) in the assay on PC-3. Also, the GI50 with Malme-3M is 0.0966 µM (active); with NCI-H23, 16.6 µM (inactive); in the assay with ACHN, 12.3 µM (inactive); in the assay with KM12 it was 5.71 µM (inactive); with NCI-H522, 6.35 µM (inactive); in the assay on SK-MEL-5, 3.38 µM (inactive).

In the case of `S=C(Nc1cccc(Cl)c1)Nc1ccccn1`, the GI50 in the assay with TK-10, in the assay on NCI-H460, with SK-MEL-2, with MCF7, in the assay with CCRF-CEM and with HCT-116 was > 100 µM (inactive) in each case. Further, the GI50 with UACC-62 was > 100 µM (inactive); in the assay with HCT-15, above 100 µM; in the assay with SK-OV-3, > 100 µM (inactive); in the assay with A549, > 100 µM (inactive); with NCI/ADR-RES, > 100 µM (inactive); with COLO 205 it was > 100 µM (inactive). The GI50 with PC-3 was > 100 µM (inactive); in the assay on Malme-3M, 27.6 µM (inactive); in the assay on KM12 it was 13.5 µM (inactive); in the assay with SK-MEL-5, > 100 µM (inactive).

Regarding `O=C(CC(C(=O)c1ccco1)c1ccsc1)c1ccco1` (stereo not drawn), the GI50 is > 100 µM (inactive) in the assay with TK-10; 71.1 µM (inactive) with NCI-H460; > 100 µM (inactive) in the assay with MCF7; > 100 µM (inactive) in the assay on CCRF-CEM; > 100 µM (inactive) in the assay with HCT-116; 90.4 µM (inactive) in the assay on UACC-62. Also, the GI50 in the assay with HCT-15 is above 100 µM; in the assay on SK-OV-3 it was > 100 µM (inactive); in the assay with A549 it was 28.8 µM (inactive); in the assay with NCI/ADR-RES, 38.6 µM (inactive); with COLO 205, > 100 µM (inactive); in the assay on A498 it was > 100 µM (inactive). Also, the GI50 is > 100 µM (inactive) in the assay on NCI-H23; > 100 µM (inactive) in the assay on ACHN; > 100 µM (inactive) with KM12; 76.9 µM (inactive) in the assay on NCI-H522; > 100 µM (inactive) with SK-MEL-5.

On to `CC(C)=CCC12Cc3ccc(O)cc3C(C(C)CN1)C2C` (stereo not drawn), for which the GI50 was > 100 µM (inactive) in the assay with TK-10; 52.5 µM (inactive) in the assay with NCI-H460; 81.3 µM (inactive) with MCF7; 46.8 µM (inactive) in the assay with CCRF-CEM; 59.7 µM (inactive) with HCT-116; > 100 µM (inactive) with UACC-62. For the same compound, the 50% growth inhibitory concentration (GI50) in the assay on HCT-15 was 72.1 µM; in the assay with SK-OV-3 it was > 100 µM (inactive); in the assay on A549 it was > 100 µM (inactive); with NCI/ADR-RES, > 100 µM (inactive); in the assay on COLO 205, 36.9 µM (inactive); with A498, 50.9 µM (inactive). The GI50 with Malme-3M is > 100 µM (inactive); in the assay on NCI-H23 it was > 100 µM (inactive); in the assay on ACHN it was > 100 µM (inactive); in the assay on KM12 it was > 100 µM (inactive); in the assay on SK-MEL-5, > 10 µM (inactive).

As for `C=C1C(OC2O[C@@H]3O[C@@]4(C)CC[C@H]5[C@H](C)CC[C@@H](C2=C)[C@@]35O4)O[C@@H]2O[C@@]3(C)CC[C@H]4[C@H](C)CC[C@@H]1[C@@]24O3` (stereo partly drawn), the GI50 with TK-10, in the assay on NCI-H460, in the assay with SK-MEL-2, with MCF7, in the assay with CCRF-CEM and in the assay with HCT-116 was > 50 µM (inactive) throughout. The GI50 in the assay with UACC-62 was > 50 µM (inactive); in the assay on HCT-15 it was above 50 µM; with SK-OV-3, > 50 µM (inactive); with A549, > 50 µM (inactive); in the assay on COLO 205, > 50 µM (inactive); in the assay with A498 it was > 50 µM (inactive). For the same compound, the GI50 with PC-3, in the assay with Malme-3M, in the assay on NCI-H23, in the assay with ACHN, in the assay with KM12 and with NCI-H522 was > 50 µM (inactive) in each case. Also, the GI50 with SK-MEL-5 is > 50 µM (inactive).

Take `CC1[C@@]2(CCC(C)(C)O2)O[C@@H]2C=C3C4CCC5Cc6nc7c(nc6C[C@@]5(C)C4C[C@H](O)[C@@]3(C)[C@]12O)CC1CCC2C3=C[C@H]4O[C@@]5(O[C@@](C)(CO)C[C@@H]5O)C(C)[C@@]4(O)[C@]3(C)[C@@H](O)CC2[C@]1(C)C7` (stereo partly drawn): the 50% growth inhibitory concentration (GI50) in the assay with TK-10 is 0.681 µM (active); in the assay on NCI-H460 it was 0.0388 µM (active); in the assay with SK-MEL-2, 0.0783 µM (active); in the assay on MCF7 it was 0.00959 µM (active); in the assay with CCRF-CEM, 0.0199 µM (active); with HCT-116 it was 0.12 µM (active). Moreover, the GI50 was 0.0508 µM (active) in the assay on UACC-62; 0.169 µM in the assay with HCT-15; 0.0863 µM (active) in the assay on SK-OV-3; 0.0953 µM (active) in the assay on A549; 0.619 µM (active) in the assay on NCI/ADR-RES; 0.163 µM (active) in the assay on COLO 205. Besides, the GI50 in the assay with A498 was 0.0313 µM (active); in the assay with Malme-3M it was 0.175 µM (active); in the assay on NCI-H23, 0.118 µM (active); in the assay on ACHN it was 0.103 µM (active); in the assay on KM12, 0.109 µM (active); with NCI-H522, 0.00902 µM (active). For the same compound, the GI50 in the assay on SK-MEL-5 is 0.0951 µM (active).

With `Cc1c2c(nc3ccccc13)C(=O)c1cccnc1C2=O`, the GI50 with TK-10 is > 100 µM (inactive); with NCI-H460, 1.96 µM (inactive); in the assay on MCF7, 4.89 µM (inactive); in the assay on CCRF-CEM, 22.4 µM (inactive); in the assay on HCT-116 it was 3.91 µM (inactive); in the assay with UACC-62, 3.15 µM (inactive). Besides, the GI50 with HCT-15 is 10.9 µM; in the assay with SK-OV-3, > 100 µM (inactive); with A549 it was 1.66 µM (inactive); in the assay with NCI/ADR-RES, 27.2 µM (inactive); in the assay with COLO 205, 17.1 µM (inactive); in the assay on PC-3 it was 24.3 µM (inactive). Also, the GI50 with Malme-3M was 1.29 µM (inactive); in the assay with NCI-H23, 6.46 µM (inactive); in the assay on ACHN it was 10.6 µM (inactive); in the assay on KM12, 14.9 µM (inactive); in the assay with NCI-H522, 6.87 µM (inactive); in the assay on SK-MEL-5, 0.381 µM (active).

Regarding `Cc1ccc2nc3c(C)c(Cl)c(=O)cc-3sc2c1`, the GI50 with TK-10 is 56.8 µM (inactive); in the assay with NCI-H460 it was 23.1 µM (inactive); with SK-MEL-2 it was 17.2 µM (inactive); in the assay on MCF7, 17.6 µM (inactive); with CCRF-CEM, 3.63 µM (inactive); in the assay on HCT-116, 17.8 µM (inactive). Besides, the GI50 with UACC-62 is 8.57 µM (inactive); in the assay with HCT-15 it was 10.6 µM; in the assay on SK-OV-3, > 100 µM (inactive); in the assay with A549 it was 16.7 µM (inactive); in the assay on COLO 205 it was 29.9 µM (inactive); in the assay with A498 it was 40.2 µM (inactive). Besides, the GI50 is 8.93 µM (inactive) with PC-3; > 45.7 µM (inactive) with Malme-3M; 13.2 µM (inactive) in the assay with NCI-H23; 18.5 µM (inactive) in the assay with ACHN; 23.1 µM (inactive) in the assay with KM12; 11.1 µM (inactive) in the assay on NCI-H522. Also, the GI50 in the assay on SK-MEL-5 is 13.6 µM (inactive).
